Legend:
[1] = tested on: IL-17A; assay: Multiplex (MSD V-PLEX) cytokine release, InflammaSkin: IL-17A; type: cell-based, human; settings: Example 1; Day 7 supernatant; 1 μM Otezla or SCFA (45 μg/mL Ca-propionate + 1 mM Ca-/Mg-butyrate) systemic, 0.05% Betamethasone topical; vs untreated InflammaSkin
Experimental: (§1) A total of 16 biopsies of 15 mm diameter were produced from a single donor. Two NativeSkin® models with 12/15 mm silicon rings were produced from the biopsies according to standard procedures in place, and cultured under cell culture conditions (37° C., 5% CO2, max. humidity) for 7 days with 2 mL of standard NativeSkin® medium renewed every day. Fourteen PSO-InflammaSkin® models with 12/15 mm silicon rings were produced by inducing in situ activation and Th17/Th1 polarization of skin resident T cells with a proprietary cocktail, and cultured under cell culture conditions (37° C., 5% CO2, max. humidity) for 7 days with 2 mL of PSO-InflammaSkin® culture medium renewed every day.
(§2) From Day 1 to Day 6, models were systemically treated with 1 μM Otezla or Short Chain Fatty Acids (SCFAs), or topically treated with positive control 0.05% Betamethasone
(§3) In these experiments, the SCFAs administered were 45 μg/mL of Ca-propionate and 1 mM mixture of salts (Ca-butyrate and Mg-butyrate).
At Day 7, supernatants were collected and stored at −80° C. and skin models of all conditions were carefully unmolded. […]
Human pro-inflammatory cytokines released in the supernatant were quantified using the V-PLEX Human IL-17A Kit (MesoScale Discovery, reference: K151RFD-1) and V-PLEX Human TNFα Kit (MesoScale Discovery, reference: K151QWD-1). […]
(§4) Human pro-inflammatory cytokines released in the supernatant were quantified using the V-PLEX Human IL-17A Kit (MesoScale Discovery, reference: K151RFD-1) and V-PLEX Human custom Pro-inflammatory. […]
(§5) Samples were diluted four times for plate 2 and two times for plate 1. Samples and standards were assessed in duplicate. Plates were read on MesoScale Discovery Quickpleax SQ 120 plate reader and values expressed in pg/mL.
(§6) A statistical analysis was performed. […] First, the distribution's normality of the two compared group was assessed. […] If the two distributions were normal, the homogeneity of variances was assessed using a Fisher test on the variances. […]

[2] = tested on: TNF-α; assay: Multiplex (MSD V-PLEX) cytokine release, InflammaSkin: TNF-α; type: cell-based, human; settings: Example 1; Day 7 supernatant; SCFA (45 μg/mL Ca-propionate + 1 mM Ca-/Mg-butyrate) systemic, 0.05% Betamethasone topical; vs untreated InflammaSkin
Experimental: as §1, §2, §3
At Day 7, supernatants were collected and stored at −80° C. and skin models of all conditions were carefully unmolded. Skin biopsies were re-punched to eliminate the area under the silicon ring, fixed in 10% buffered formalin and processed for paraffin wax embedding.
Human pro-inflammatory cytokines released in the supernatant were quantified using the V-PLEX Human IL-17A Kit (MesoScale Discovery, reference: K151RFD-1) and V-PLEX Human TNFα Kit (MesoScale Discovery, reference: K151QWD-1). Values are expressed in pg/mL. For each condition, single values, mean and SEM were plotted using GraphPad Prism. Statistical analysis was performed using a One Way ANOVA test.
PSO-InflammaSkin® models were cultured and treated as described in Example 1. In these experiments, the SCFAs administered were 45 μg/mL of Ca-propionate and 1 mM mixture of salts (Ca-butyrate and Mg-butyrate).
Human pro-inflammatory cytokines released in the supernatant were quantified using the V-PLEX Human IL-17A Kit (MesoScale Discovery, reference: K151RFD-1) and V-PLEX Human custom Pro-inflammatory. Plate 1 comprised Proinflammatory Panel 1 (human) kit reference K15049 (panel IFN-γ and TNF-α). Plate 2 comprised TH17 Panel 1 (human) kit reference K15049 (panel IL-17A Gen B, IL-21, IL-22, IL-23, IL-27, IL-31, MIP-3α).
as §5
A statistical analysis was performed. Each condition was compared to the untreated InflammaSkin® condition. First, the distribution's normality of the two compared group was assessed. […] If the two distributions were normal, the homogeneity of variances was assessed using a Fisher test on the variances. […]

[3] = tested on: IL-27; assay: Multiplex (MSD V-PLEX) cytokine release, InflammaSkin: IL-27; type: cell-based, human; settings: Example 2; 0.05% Betamethasone topical; vs untreated InflammaSkin
Experimental: A total of 16 biopsies of 15 mm diameter were produced from a single donor. Two NativeSkin® models with 12/15 mm silicon rings were produced from the biopsies according to standard procedures in place, and cultured under cell culture conditions (37° C., 5% CO2, max. humidity) for 7 days with 2 mL of standard NativeSkin® medium renewed every day. Fourteen PSO-InflammaSkin® models with 12/15 mm silicon rings were produced by inducing in situ activation and Th17/Th1 polarization of skin resident T cells with a proprietary cocktail, and cultured under cell culture conditions (37° C., 5% CO2, max. humidity) for 7 days with 2 mL of PSO-InflammaSkin® culture medium renewed every day. […]
as §4, §5, §6

[4] = tested on: imiquimod (IMQ)-induced psoriasis model mice; assay: Transepidermal water loss (TEWL) on back skin, IMQ-induced psoriasis model in mice; type: in vivo, mouse; settings: Example 4, day 5, Apremilast 25 mg/kg BID p.o., SCFA fixed dose BID p.o., Etanercept 10 mg/kg Q3D s.c.
Experimental: Topical application of IMQ, a TLR7/8 ligand and potent immune activator induced and exacerbated psoriasis in mice. The mouse IMQ-induced psoriasis (IMQ Ps) model was initiated by a repeated topical application of Aldara© cream (containing 5% IMQ) over 6 consecutive days. Female Balb/c mice (9 weeks of age at reception, ordered with 20 g, Charles River, Sulzfeld, Germany; n=10 mice/group, exception healthy controls n=4) received daily a topical application of 62.5 mg of commercially available IMQ cream (5% Aldara©) on the beforehand (day −1) shaved (~2 cm×3 cm), depilated (Pilka© cream) back skin, and 7 mg on the outer right ear skin for 6 consecutive days, translating in a daily dose of approximately 3.5 mg IMQ. Healthy control mice were included in the study and were treated with vehicle cream (Vaseline; Bombastus-Werke AG) only instead of IMQ. Additionally, an IMQ disease control group was also included.
Physiological parameter transepidermal water loss (TEWL; in g/m^2/h) was tested and evaluated on back skin at day 5 by a Tewameter (TM300, Courage and Khazaka, Cologne, Germany) during the IMQ psoriasis experiment. TEWL is a common examined parameters for the assessment of a disturbed skin function present in psoriatic skin. TEWL may be used a diagnostic marker in the clinics to accurately assess the disease severity in psoriasis.

Row | Molecule | IL-17A levels decreased by [1] | TNF-α levels decreased by [2] | increase of IL-27 cytokine secretion [3] | transepidermal water loss (TEWL) [4]
1 | C[C@H]1C[C@H]2[C@@H]3CCC4=CC(=O)C=C[C@]4(C)[C@@]3(F)[C@@H](O)C[C@]2(C)[C@@]1(O)C(=O)CO [Betamethasone] | about 70% | ~ 40% | about 30% | 
2 | Etanercept |  |  |  | did not show significant effects

Reference: patent US20260216109A1, “TREATMENT OF SKIN DISORDERS WITH SHORT CHAIN FATTY ACIDS” (Temple University-Of The Commonwealth System of Higher …, priority 2023, published 2026)
